Measurements reported in patent US20150190369A1, “QUERCETIN-3-GLUCOSIDE AND USES THEREOF” (priority 2012, published 2015).

Tests used:
ABCG1 = experiment: Immunoblotting for ABCG1 in MIN6 β-cells; format: cell-based, mouse; details: MIN6, Q3G-treated
Procedure: (§1) The corresponding photographs of the immunoblotting results are also shown. MIN6 cells were incubated for 24 h in the presence of 16 μM Q3G. Cell lysates were analyzed by semi-quantitative immunoblotting using different antibodies successively.
(§2) Mouse insulinoma MIN6 cells were cultured in a 5% CO2-95% air atmosphere at 37° C. in DMEM medium containing 10% heat-inactivated fetal bovine serum, 1 mM Na-pyruvate, 2 mM L-glutamine, 25 mM D-glucose, and 28 μM β-mercaptoethanol. Q3G at a specific final concentration was supplemented to the culture medium and incubation was conducted for a selected length of time. Media were collected, spun at 600 g to sediment suspended cells, supplemented with 0.5 volumes of 3×RIPA-PIC (1×: 50 mM Tris-HCl, pH 8, 150 mM NaCl, 1% NP-40, 0.5% Na-deoxycholate and 0.1% SDS and PIC). Cells were lysed in 1×RIPA-PIC for immuno-blotting, or in RNA extraction buffer for qRT-PCR.
(§3) Cell lysates were fractionated by SDS-PAGE and electrophoretically transferred onto a polyvinylidene fluoride membrane. […] The signal was captured on X-ray film and immunoreactive bands analyzed by densitometry on a Syngene's ChemiGenius^2XE Bio Imaging System (Cambridge, Mass.) within the dynamic range of the instrument. […]

proPCSK9 = experiment: Immunoblotting for PCSK9/proPCSK9 in MIN6 β-cells; format: cell-based, mouse; details: MIN6, 24 h, 16 μM Q3G versus untreated
Procedure: as §1, §2, §3

LDLR = experiment: Immunofluorescence flow cytometry of cell surface LDLR on Huh7 cells; format: cell-based, human; details: Huh7 pretreated 24 h with 5 μM Q3G versus untreated
Procedure: Cells were seeded at 4×10^4 cell/10-cm dish in 3 ml of completed medium and incubated overnight. LPDS medium containing or not 5 μM Q3G was substituted and incubation resumed for 24 h. Subsequent steps were conducted with ice-cold solutions and at 4° C. Cell monolayers were rinsed with PBS, overlaid with PBS containing rabbit anti-LDLR antibody for 1 h, then with PBS containing Alexa Fluor-488-conjugated goat anti-rabbit Ig antibody for another 1 h. After a PBS rinse, the cells were overlaid with Versene, suspended in DMEM and analyzed in Benson-Dickenson XL flow cytometer at 492 nm and 520 nm excitation and emission wavelengths, respectively. Cell autofluorescence and non-specific fluorescence were assessed using cells not treated with the secondary and the primary antibody, respectively.
To be functionally relevant, Q3G-induced LDLR should accumulate at the cell surface of the hepatocyte cells where it could mediate LDL uptake. To verify the surface localization of the receptor, untreated and pretreated intact Huh7 cells were stained at 4° C. for LDLR by indirect immunofluorescence, and analyzed by fluorescence flow cytometry.

HNF-1α = experiment: Immunoblotting for HNF-1α in cells exposed to Q3G; format: cell-based; details: cells incubated 24 h with Q3G
Procedure: FIG. 3 is a graph illustrating hepatocyte nuclear factor la (HNF-1α) expression in cells on exposure to Q3G. Cells were incubated for 24 h in medium containing the indicated concentrations of Q3G. Cells lysates were analyzed by semi-quantitative immunoblotting for the levels of HNF-1α.
Cell lysates were fractionated by SDS-PAGE and electrophoretically transferred onto a polyvinylidene fluoride membrane. The membrane was incubated with a goat antihuman LDLR, rabbit anti-PCSK9, or rabbit anti-SREBP-2 polyclonal antibody at 1:1000, 1:1500, and 1:200 dilutions, respectively, and then with a HRP-conjugated heterospecific secondary antibody against the primary Igs at a 1:2000 dilution. It was probed for HRP reaction using the Western Lightning Chemiluminescence Reagent Plus a chemiluminescence-based revelation kit. The signal was captured on X-ray film and immunoreactive bands analyzed by densitometry on a Syngene's ChemiGenius^2XE Bio Imaging System (Cambridge, Mass.) within the dynamic range of the instrument. The membrane was stripped and reprobed with the anti-β-actin monoclonal primary antibody at 1:20,000 dilution and HRP-conjugated rabbit anti-mouse IgG secondary antibody at a 1:5000 dilution. The densitometric values of β-actin bands were using for normalization of experimental samples.

With O=c1c(O[C@@H]2O[C@H](CO)[C@@H](O)[C@H](O)[C@H]2O)c(-c2ccc(O)c(O)c2)oc2cc(O)cc(O)c12 [Q3G, quercetin-3-O-β-D-glucoside] the “relative amount of ABCG1 protein compared with mRNA” value (ABCG1) was “in concordance with the relative amounts of mRNA”, the “intracellular content of proPCSK9” value (proPCSK9) was “higher” and the “increase of LDLR cell surface density” value (LDLR) was 1.7 fold. For the same compound, the “level of HNF-1α” value (HNF-1α) was “does not change”.
